According to article PMC2994023 (Interdisciplinary Toxicology, 2010):

Columns and labels:
CYP = CYP concentration in hepatic microsomes of induced rats (CO complex of reduced CYP); settings: hepatic microsomes of rats induced with the agent
Protocol: (§1) The study was conducted in accordance with the Regulations for the Care and Use of Laboratory Animals (311/1997, Ministry of Agriculture, Czech Republic), which complies with Declaration of Helsinki. Microsomes from livers of ten untreated rats and three rabbits were prepared by the procedure described previously (Stiborová et al., [1988]). Microsomes from the livers of ten male Wistar rats pretreated with β-NF (Stiborová et al., [1988]) were isolated as described (Stiborová et al., [1988]; [1995]), those pretreated with phenobarbital (PB) as reported by Hodek et al. ([1988]), and those pretreated with ethanol were isolated using a procedure described by Yang et al. ([1985]). Protein concentrations in the microsomal fractions were assessed using the bicinchoninic acid protein assay with bovine serum albumin as a standard (Wiechelman et al., [1988]). The concentration of CYP was estimated according to Omura and Sato ([1964]), by measuring the absorption of the complex of reduced CYP with carbon monoxide. […] The activity of NADPH:CYP reductase in rat hepatic microsomes was measured according to Sottocasa et al. ([1967]) using cytochrome c as substrate (i.e., as NADPH:cytochrome c reductase).

NADPH:CYP reductase = NADPH:CYP reductase activity in hepatic microsomes of induced rats (cytochrome c as substrate); settings: hepatic microsomes of rats induced with the agent
Protocol: as §1

Sacchromyces cerevisiae = settings: ref Brennan and Schiestl ([1997]); cited from earlier work
rat hepatic microsomes = assay: Metabolism of N-(2-methoxyphenyl)hydroxylamine by hepatic microsomes of control (uninduced) rats, HPLC of metabolites; format: in vitro ADME; settings: 1.0 mM substrate
Protocol: as §1

[1] = test system: rat hepatic microsomes enriched with CYP2E1; assay: Metabolism of N-(2-methoxyphenyl)hydroxylamine by hepatic microsomes of rats pre-treated with ethanol; format: in vitro ADME
Protocol: as §1

[2] = Incubation of N-(2-methoxyphenyl)hydroxylamine without hepatic microsomal enzymes or without NADPH (spontaneous conversion); format: physicochemical; settings: pH 7.4, without hepatic microsomal enzymes or without NADPH
Protocol: At pH 7.4, used for microsomal incubations, their spontaneous formation was negligible.

Structure (SMILES) | CYP content of hepatic microsomes (CYP) | NADPH:CYP reductase activity in hepatic microsomes (NADPH:CYP reductase) | further results
O=c1cc(-c2ccccc2)oc2ccc3ccccc3c12 [β-NF, β-naphthoflavone] | 1.3 nmol CYP/mg protein | 0.199 µmol/min/mg protein | 
Nc1ccccc1O [o-aminophenol] |  |  | result in the deletion recombination assay (Sacchromyces cerevisiae): positive
CCC1(c2ccccc2)C(=O)NC(=O)NC1=O [PB, phenobarbital] | 2.7 nmol CYP/mg protein | 0.325 µmol/min/mg protein | 
COc1ccccc1NO [N-(2-methoxyphenyl)hydroxylamine] |  |  | formation of metabolite M1 (rat hepatic microsomes): negligible; change of levels of o-anisidine versus control microsomes [1]: decreased; spontaneous formation of metabolite M1 and o-aminophenol [2]: negligible
CCO [ethanol] | 1.8 nmol CYP/mg protein | 0.201 µmol/min/mg protein | 
